Molecules are shown by their SMILES.

Experimental findings from US11236055B2 (Venenum Biodesign, LLC, priority 2016, dated 2022) are described below.

One test addresses T1, mouse TGR5 receptor (Mus musculus, UniProt Q80SS6).
T1 construct: expressed in transfected cells; host or cells: HEK293-EBNA (293 c18, ATCC CRL10852), Hygromycin B selection
T1 sequence (Q80SS6 1-329): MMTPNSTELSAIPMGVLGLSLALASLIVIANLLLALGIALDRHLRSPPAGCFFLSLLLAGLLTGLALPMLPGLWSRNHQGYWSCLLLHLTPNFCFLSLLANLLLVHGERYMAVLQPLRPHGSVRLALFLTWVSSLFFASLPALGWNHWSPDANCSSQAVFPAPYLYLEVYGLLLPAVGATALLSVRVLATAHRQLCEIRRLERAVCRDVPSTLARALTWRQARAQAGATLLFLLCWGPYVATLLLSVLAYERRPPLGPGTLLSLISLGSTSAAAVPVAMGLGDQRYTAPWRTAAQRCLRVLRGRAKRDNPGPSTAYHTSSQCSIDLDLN
The test is described as follows: Mouse TGR5 cAMP production assay (luminescent, DiscoveRx cAMP XS+). The test is classed as cell-based. Particulars: HEK293-EBNA cells overexpressing mouse TGR5, luminescent cAMP XS+; coded A-D; read-out: Mouse TGR5 Lum. cAMP Activity (EC50). The text has this: Mouse TGR5 cAMP Production Assay
We evaluated compounds of the present invention for their ability to induce cAMP production in HEK-EBNA cells overexpressing the mouse TGR5 receptor. Human embryonic kidney cells (HEK293-EBNA) stably expressing mouse TGR5 receptor were established using the following procedure. Specifically, a commercially-obtained gene encoding mouse TGR5 (accession number BC116914) from Thermo Scientific (Waltham, Mass.) was cloned into an episomal expression vector. The resulting expression plasmid was then transfected into 293 c18 (ATCC® CRL10852™) cells, which express the Epstein-Barr virus nuclear antigen EBNA1 and can support the replication of episomal vectors. Selection for the plasmid was maintained with Hygromycin B. Cells were cultured and maintained in DMEM (Sigma; cat #6429) supplemented with 10% Fetal Bovine Serum, 1% penicillin/streptomycin, 2 mM L-alanine L-glutamine (GlutaMax), and 250 μg/mL Hygromycin.
Two cAMP production assays were developed.
1. Luminescent cAMP Production Assay
In this first cAMP production assay, the cAMP production was measured using DiscoveRx's cAMP XS+ kit following the manufacturer's recommended protocol.
Briefly, HEK293-EBNA cells stably overexpressing mouse TGR5 were harvested using non-enzymatic cell dissociation buffer (Sigma-Aldrich, St. Louis, Mo.), spun down, then resuspended in serum-free DMEM with 500 μM IBMX at a density of 1.25×10^6 cells/mL. 500 μL of cAMP antibody solution was added to […] of cell suspension and incubated at room temperature for 20 min.
Test compounds were serially diluted (half-log dilutions) in DMSO and then further diluted 1:50 in PBS, 10 mM HEPES buffer. 2 μL of serially diluted compound was added to a 384-well low volume plate (Greiner cat #784075) and centrifuged briefly. 2 μL of the cell/cAMP antibody mixture was then added to each compound-containing well and allowed to incubate at room temperature for one (1) hour. Following incubation, the XS+ kits' ED/Lysis/CL Substrate Working Solution was prepared following the manufacturer's recommended protocol and 4 μL was added to each well of the plate. The plate was then incubated for one (1) hour at room temperature. Following incubation, 4 μL of (Enzyme Acceptor) EA reagent was added to the plate and allowed to incubate overnight at room temperature. Luminescent signal was then detected using the Viewlux instrument (Perkin-Elmer, Waltham, Mass.).
In Table 33, EC50 values for both human and mouse cells were determined according to the TGR5 cAMP assays described above.

Another test deals with T2, human TGR5 receptor (Homo sapiens, UniProt Q8TDU6).
T2 construct: host or cells: CHO-K1 (hTGR5-CHO cells)
T2 sequence (Q8TDU6 1-330): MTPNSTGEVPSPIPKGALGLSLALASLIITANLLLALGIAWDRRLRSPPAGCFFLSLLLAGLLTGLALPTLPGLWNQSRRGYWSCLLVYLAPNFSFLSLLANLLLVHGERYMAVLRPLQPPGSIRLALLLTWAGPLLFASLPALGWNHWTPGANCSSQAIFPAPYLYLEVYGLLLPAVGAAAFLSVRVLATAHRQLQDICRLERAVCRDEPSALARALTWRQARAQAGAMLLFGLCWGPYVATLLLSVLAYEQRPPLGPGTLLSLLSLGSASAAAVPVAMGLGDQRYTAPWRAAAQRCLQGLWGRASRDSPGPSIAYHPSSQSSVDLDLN
The test is described as follows: Human TGR5 cAMP production assay. To be noted: human TGR5, luminescent cAMP assay; coded A-D; read-out: Human TGR5 Lum. cAMP Activity (EC50). It is filed as cell-based. Summed up:
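Intracellular cAMP read by luminescent enzyme-complementation (XS+) after overnight development, following 1 h room-temperature compound treatment of hTGR5-CHO-K1 cells in IBMX plus anti-cAMP antibody. Compounds tested as half-log dilution series; EC50 derived.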

Regarding `Cc1noc(C)c1-c1cccc(CNS(=O)(=O)c2cc(F)cc(C(F)(F)F)c2)c1` [Compound 2AG], the results for the EC50 on mouse TGR5 receptor and on human TGR5 receptor were > 30 µM and 1 to 30 µM, respectively.
In the case of `O=S(=O)(NCc1cccc(-c2ccncc2)c1)c1ccccc1Cl` [Compound 2AR], the EC50 is > 30 µM on mouse TGR5 receptor and 1 to 30 µM on human TGR5 receptor.
On to `CC(C)(NS(=O)(=O)c1cccc(C(F)(F)F)c1)c1cccc(-c2ccnc(N)c2)c1` [Compound 1AL], for which the EC50 on mouse TGR5 receptor lay within 1 to 30 µM; on human TGR5 receptor, 0.1 to 0.999 µM.
For `Cc1cc(-c2cccc(CNS(=O)(=O)c3cccc(C(F)(F)F)c3)c2)ncn1` [Compound 1BI] the same measures were > 30 µM and 1 to 30 µM.
Turning to `O=[N+]([O-])c1cccc(S(=O)(=O)NCc2cccc(-c3ccncc3)c2)c1` [Compound 2AN], the EC50 on mouse TGR5 receptor and at human TGR5 receptor was 1 to 30 µM each time.
Consider `Cc1noc(C)c1-c1cccc(CNS(=O)(=O)c2ccc(C(F)(F)F)cc2)c1` [Compound 1AA], for which the concentration for a half-maximal effect (EC50) is > 30 µM on mouse TGR5 receptor and 1 to 30 µM on human TGR5 receptor.
On to `Cc1noc(C)c1-c1cccc(CNS(=O)(=O)c2cc(C(F)(F)F)ccc2F)c1` [Compound 2AF], for which the EC50 on mouse TGR5 receptor was > 30 µM; at human TGR5 receptor, 1 to 30 µM.
Consider `COc1cccc(S(=O)(=O)NCc2cccc(-c3ccncc3)c2)c1` [Compound 2AL], for which the 50% effective concentration (EC50) on mouse TGR5 receptor was > 30 µM; on human TGR5 receptor it was 1 to 30 µM.
As to `C[C@H](NS(=O)(=O)c1cccc(C(F)(F)F)c1)c1cccc(-c2ccncc2F)c1` [Compound 1AY], the 50% effective concentration (EC50) at mouse TGR5 receptor was in the range of 1 to 30 µM; at human TGR5 receptor, 0.1 to 0.999 µM.
As for `Cc1cnccc1-c1cccc(C(C)(C)NS(=O)(=O)c2ccccc2C(F)(F)F)c1` [Compound 5AI, N-(2-(3-(3-methylpyridin-4-yl)phenyl)propan-2-yl)-2-(trifluoromethyl)benzenesulfonamide], the values for the EC50 at mouse TGR5 receptor and on human TGR5 receptor were 0.1 to 0.999 µM and < 0.1 µM, respectively.
On the same counts, the results for `COc1cccc(S(=O)(=O)NCc2cccc(-c3c(C)noc3C)c2)c1` [Compound 2AB] are 1 to 30 µM and 1 to 30 µM.
In the case of `COc1cnccc1-c1ccnc(CNS(=O)(=O)c2cccc(C(F)(F)F)c2)c1` [Compound 1BR], the EC50 on mouse TGR5 receptor and at human TGR5 receptor was 1 to 30 µM in each case.
In the case of `Cc1noc(C)c1-c1cccc(CNS(=O)(=O)c2ccc(Cl)cc2)c1` [Compound 1AB], the 50% effective concentration (EC50) on mouse TGR5 receptor was > 30 µM; on human TGR5 receptor, 1 to 30 µM.
For the compound `O=S(=O)(NCc1cccc(-c2ccncc2)c1)c1ccccc1F` [Compound 2AS], the 50% effective concentration (EC50) on mouse TGR5 receptor is > 30 µM; at human TGR5 receptor, 1 to 30 µM.
On the same counts, the results for `Cc1cc(-c2cccc(C(C)(C)NS(=O)(=O)c3cccc(C(F)(F)F)c3)c2)ccn1` [Compound 1AK] are 1 to 30 µM and 0.1 to 0.999 µM.
For the compound `C[C@H](NS(=O)(=O)c1ccccc1[N+](=O)[O-])c1cccc(-c2ccncc2Cl)c1` [Compound 2BS], the half-maximal effective concentration (EC50) on mouse TGR5 receptor and at human TGR5 receptor was 0.1 to 0.999 µM throughout.
On to `O=S(=O)(NCc1cccc(-c2ccncc2)c1)c1ccccc1C(F)(F)F` [Compound 2AM], for which the EC50 at mouse TGR5 receptor and on human TGR5 receptor was 1 to 30 µM throughout.
On to `CC(C)(NS(=O)(=O)c1cccc(C(F)(F)F)c1)c1cccc(-c2ccnc(C(F)(F)F)c2)c1` [Compound 1AH], for which the figures for the EC50 at mouse TGR5 receptor and at human TGR5 receptor were > 30 µM and 1 to 30 µM, respectively.
On to `Cc1cccc(S(=O)(=O)NCc2cccc(-c3c(C)noc3C)c2)c1` [Compound 2, N-(3-(3,5-dimethylisoxazol-4-yl)benzyl)-3-methylbenzenesulfonamide], for which the EC50 at mouse TGR5 receptor and on human TGR5 receptor was 1 to 30 µM in each case.
Regarding `O=S(=O)(NCc1ccc(Cl)c(-c2ccncc2)c1)c1cccc(C(F)(F)F)c1` [Compound 1BU], the figures for the EC50 at mouse TGR5 receptor and on human TGR5 receptor were > 30 µM and 1 to 30 µM, respectively.
As to `Cc1noc(C)c1-c1cccc(CNS(=O)(=O)c2ccc(Cl)c(C(F)(F)F)c2)c1` [Compound 2AD], the EC50 at mouse TGR5 receptor is > 30 µM; at human TGR5 receptor it was 1 to 30 µM.
On the same counts, the results for `O=S(=O)(NCc1cc(-c2ccncc2Cl)ccc1F)c1cccc(C(F)(F)F)c1` [Compound 1AV] are 1 to 30 µM and 1 to 30 µM.
Consider `COc1cnccc1-c1cccc([C@H](C)NS(=O)(=O)c2cccc(C(F)(F)F)c2)c1` [Compound 1AZ], for which the EC50 was 1 to 30 µM at mouse TGR5 receptor and < 0.1 µM at human TGR5 receptor.
Take `C[C@H](NS(=O)(=O)c1cccc(Br)c1)c1cccc(-c2ccncc2Cl)c1` [Compound 2BR]: the results for the EC50 at mouse TGR5 receptor and on human TGR5 receptor were 1 to 30 µM and 0.1 to 0.999 µM, respectively.
In the case of `Cc1noc(C)c1-c1cccc(C(C)(C)NS(=O)(=O)c2cccc(C(F)(F)F)c2)c1` [Compound 1AC], the EC50 on mouse TGR5 receptor and at human TGR5 receptor was 1 to 30 µM each time.
As to `C[C@H](NS(=O)(=O)c1ccccc1C(F)(F)F)c1cccc(-c2ccncc2Cl)c1` [Compound 2BT], the results for the concentration for a half-maximal effect (EC50) on mouse TGR5 receptor and at human TGR5 receptor were 0.1 to 0.999 µM and < 0.1 µM, respectively.
Take `CC(C)(NS(=O)(=O)c1cccc(C(F)(F)F)c1)c1cccc(-c2ccncc2Cl)c1` [Compound 1AF]: the EC50 on mouse TGR5 receptor and on human TGR5 receptor was 0.1 to 0.999 µM each time.
Take `O=S(=O)(NCc1cccc(-c2cc(C(F)(F)F)ncn2)c1)c1cccc(C(F)(F)F)c1` [Compound 1BJ]: the EC50 was > 30 µM at mouse TGR5 receptor and 1 to 30 µM on human TGR5 receptor.
`CC(C)(NS(=O)(=O)c1cccc(C(F)(F)F)c1)c1cccc(-c2ccncc2F)c1` [Compound 1AE]: the EC50 at mouse TGR5 receptor was 1 to 30 µM; on human TGR5 receptor it was < 0.1 µM.
Regarding `O=S(=O)(NCc1cc(-c2ccncc2)ccc1F)c1cccc(C(F)(F)F)c1` [Compound 1AU], the concentration giving a half-maximal response (EC50) at mouse TGR5 receptor and on human TGR5 receptor was 1 to 30 µM throughout.
Turning to `O=S(=O)(NCc1ccc(F)c(-c2ccncc2Cl)c1)c1cccc(C(F)(F)F)c1` [Compound 1AT], the concentration giving a half-maximal response (EC50) at mouse TGR5 receptor and on human TGR5 receptor was 1 to 30 µM each time.
With `Cc1noc(C)c1-c1cccc(CNS(=O)(=O)c2cccc(C(F)(F)F)c2)c1` [Compound 1, N-(3-(3,5-dimethylisoxazol-4-yl)benzyl)-3-(trifluoromethyl)benzenesulfonamide], the EC50 at mouse TGR5 receptor and at human TGR5 receptor was 1 to 30 µM in each case.
For `O=S(=O)(NCc1cccc(-c2ccncn2)c1)c1cccc(C(F)(F)F)c1` [Compound 1BK], the EC50 is > 30 µM at mouse TGR5 receptor and 1 to 30 µM on human TGR5 receptor.
Turning to `COc1cnccc1-c1cccc(C(C)(C)NS(=O)(=O)c2cccc(Br)c2)c1` [Compound 2AT], the results for the 50% effective concentration (EC50) on mouse TGR5 receptor and at human TGR5 receptor were 1 to 30 µM and 0.1 to 0.999 µM, respectively.
On the same counts, the results for `COc1cnccc1-c1cccc(C(C)(C)NS(=O)(=O)c2ccccc2Cl)c1` [Compound 2AX] are 0.1 to 0.999 µM and 0.1 to 0.999 µM.
As for `COc1cnccc1-c1cccc(CNS(=O)(=O)c2cccc(C(F)(F)F)c2)n1` [Compound 1BQ], the EC50 on mouse TGR5 receptor and at human TGR5 receptor was 1 to 30 µM throughout.
Consider `Cc1cnccc1-c1cccc([C@H](C)NS(=O)(=O)c2cccc(C(F)(F)F)c2)c1` [Compound 5AG, (S)-N-(1-(3-(3-methylpyridin-4-yl)phenyl)ethyl)-3-(trifluoromethyl)benzenesulfonamide], for which the half-maximal effective concentration (EC50) at mouse TGR5 receptor is 0.1 to 0.999 µM; at human TGR5 receptor it was < 0.1 µM.
